Where two headings read alike, the source gives them in different places.
How the values were obtained:
[1] = Bi-directional Caco-2 permeability; format: in vitro ADME; conditions: human; for efflux ratio at 90 min: Caco-2, read-out: BA/AB Ratio; for Papp A→B at 90 min: Caco-2, apical to basolateral, read-out: AB Papp (cm/sec × 10^6); for Papp A→B at 90 min / Papp B→A at 90 min: 37 C, up to 90 minutes; for Papp B→A at 90 min: Caco-2, basolateral to apical, read-out: BA Papp (cm/sec × 10^6)
Method: Bi-directional Caco-2 permeability was assayed. Caco-2 cells were seeded onto permeable polycarbonate supports and allowed to differentiate for about 3 weeks prior to being used in the assays. The cells were then exposed to the compounds from either the apical or basolateral sides and incubated at 37 C for up to 90 minutes under light agitation. Compound transport was then measured using LC/MS/MS analysis at 30, 60, and 90 minutes.

[2] = test system: Daudi cell line (AID positive); assay: Primary screening cell killing assay, Daudi cell line (AID positive); format: cell-based; conditions: Homo sapiens, 168 h, cell death on Day 7, Cell-Titer Glo
Method: Primary screening was a phenotypic screen that utilized the synthetic lethal interaction between AID and RAD51 to identify compounds that were both potent and on target. AID expressing cells are dependent upon RAD51 for survival; inhibiting RAD51 in AID positive cells results in a cytotoxic effect.
The first step was to set up a cell killing assay in the Daudi cell line (AID positive). A 96 well u-bottom plate was prepared by writing the experiment number, plate number, date and initials in the top right corner of the plate lid. With a sterile 300 ml reservoir, and 25 ml serological pipette, evaporation buffer media was pipetted into reservoir in 25 ml increments. Using the liquid handler, 150 ul of evaporation buffer media was pipetted from reservoir into rows A and H, and Columns 1 and 12 of the 96 well u-bottom plate. Cell cultures were counted to obtain the density of cells per ml, and the culture viability. The cell density information was used to obtain 1,000,000 cells from culture using a 5 mL serological pipette into an epi tube. The cell density information from the culture was used to calculate the number of cells and volume of media needed for the assay to seed 1250 cells in 130 ul of media per available culture well in the 96 well u-bottom plate. Rows B through F were used for cells (50 wells in total), with row G left for an empty media control. The calculation was overestimated by 10 mL to account for the dead volume in the 300 ml reservoir. Once the media volume was calculated, the appropriate volume of media was pipetted in 25 mL increments into the 250 mL bottle using a 25 mL serological pipette. The 250 ml bottle was capped tightly, and placed into a 37° C. water bath for 2 minutes. While the culture media was warming, 10 mL of fresh media was pipetted from the 500 mL culture media bottle into a sterile 25 mL reservoir. Using the Eppendorf multichannel pipette, 130 ul of media was pipetted from the 25 mL reservoir into row G of the 96 well u-bottom plate. Once the 250 mL bottle of media was warmed, the volume of culture needed was pipetted into the bottle, and mixed gently with a 25 mL serological pipette as to not create bubbles, and then the contents of the bottle were pipetted into a new 300 mL reservoir. Using the liquid handler, 130 ul of culture was pipetted from the 300 mL reservoir into rows B through F of the 96 well u-bottom plate. Once the culture was added, the plate was placed into a 37° C. incubator until the compound master plate was prepared for use.
Two 96 well u-bottom plates were prepared by writing the master plate name in the upper right corner of the plate lid. Labeling one DMSO master and the other Media Master. The compounds of interest were obtained from the laboratory freezer, and placed into a 25 well storage box with a lid, and set the box aside. The compounds were vortexed after thawing but before use. Using an automatic multichannel pipette, 20 ul of 100% DMSO was pipetted into wells B3-B11 through G3-G11 of the DMSO master plate. For each compound on the master plate, 50 ul of the compound were pipetted in the appropriate well of row 2 (reference plate map to determine appropriate well). A serial dilution was prepared beginning by aspirating 20 ul from row 2 and mixing with row 3, repeating until row 11 was reached. Using the liquid handler, 194 ul of Daudi media was dispensed into wells B2-B11 through G2-G11 of the Media master plate. Using the liquid handler, 6 ul from the DMSO master plate was aspirated and dispensed into the media master plate, mixing 100 ul twice.
Compounds from master plate were then added to the culture plate. The culture plates were removed from the incubator, and set inside the biosafety cabinet. Using a liquid handler, 20 ul from wells B2 to B11 through G2 to G11 of master plate were aspirated, and dispensed into wells B2 to B11 through G2 to G11 of culture plate. This set was continued with each culture plate. […]

[3] = Caco-2, Caco-2, AB direction, read-out: AB Recovery %
[4] = Caco-2, Caco-2, BA direction, read-out: BA Recovery %

recovery at 90 min [1, 3] [%]	recovery at 90 min [1, 4] [%]	efflux ratio at 90 min [1]	Papp A→B at 90 min [1] [nm/s]	Papp B→A at 90 min [1] [nm/s]	Compound	EC50 [2] [µM]
83.6	90	2.5	105	267	CC(C)OC(=O)Nc1ccc(-c2cnc([C@@H]3CC[C@@H](NC(=O)OC(C)C)CN3)s2)c(S(=O)(=O)NC(C)(C)C)c1 (relative stereo) [Ex. 63, trans-isopropyl N-[6-[5-[2-(tert-butylsulfamoyl)-4-(isopropoxycarbonylamino)phenyl]thiazol-2-yl]-3-piperidyl]carbamate]	0.1 to 1
34.7	80.8	0.4	59	22	CC(C)OC(=O)Nc1ccc(-c2cnc(N3CCN(C(=O)OC(C)C)CC3)s2)c(S(=O)(=O)NC(C)(C)C)c1 [Ex. 5, isopropyl 4-[5-[2-(tert-butylsulfamoyl)-4-(isopropoxycarbonylamino)phenyl]thiazol-2-yl]piperazine-1-carboxylate]	> 1
44.8	96.6	1.1	94	104	CC(C)NC(=O)O[C@H]1CC[C@H](c2ncc(-c3ccc(NC(=O)OC(C)C)cc3S(=O)(=O)NC(C)(C)C)s2)CC1 [Ex. 20, trans-isopropyl N-[3-(tert-butylsulfamoyl)-4-[2-[4-(isopropylcarbamoyloxy)cyclohexyl]thiazol-5-yl]phenyl]carbamate]	> 1
58.6	78.3	3	36	107	CC(C)NC(=O)O[C@H]1CC[C@H](c2ncc(-c3ccc(NC(=O)NCc4ccccc4)cc3S(=O)(=O)NC(C)(C)C)s2)CC1 [Ex. 21, (1r,4r)-4-(5-(4-(3-benzylureido)-2-(N-(tert-butyl)sulfamoyl)phenyl)thiazol-2-yl)cyclohexyl isopropylcarbamate]	≤ 0.1
66.9	81	1.7	19	33	CC(C)OC(=O)N[C@H]1CC[C@H](c2ncc(-c3ccc(NC(=O)NCc4ccccc4F)cc3S(=O)(=O)NC(C)(C)C)s2)CC1 [Ex. 28, isopropyl ((1r,4r)-4-(5-(2-(N-(tert-butyl)sulfamoyl)-4-(3-(2-fluorobenzyl)ureido)phenyl)thiazol-2-yl)cyclohexyl)carbamate]	≤ 0.1
98.2	96.8	104	4	452	CC(C)OC(=O)N[C@H]1CC[C@H](c2ncc(-c3ccc(NC(=O)OC[C@H]4CCCN4C)cc3S(=O)(=O)NC(C)(C)C)s2)CC1 [Ex. 34, isopropyl ((1R,4r)-4-(5-(2-(N-(tert-butyl)sulfamoyl)-4-(((((R)-1-methylpyrrolidin-2-yl)methoxy)carbonyl)amino)phenyl)thiazol-2-yl)cyclohexyl)carbamate]	0.1 to 1
98.8	108	99.1	4	410	CC(C)OC(=O)N[C@H]1CC[C@H](c2ncc(-c3ccc(NC(=O)OC[C@@H]4CCCN4C)cc3S(=O)(=O)NC(C)(C)C)s2)CC1 [Ex. 35, isopropyl ((1S,4r)-4-(5-(2-(N-(tert-butyl)sulfamoyl)-4-(((((S)-1-methylpyrrolidin-2-yl)methoxy)carbonyl)amino)phenyl)thiazol-2-yl)cyclohexyl)carbamate]	0.1 to 1
					CC(C)OC(=O)NC1CCC(c2ncc(-c3ccc(NC(=O)OC[C@H]4CCCN4)cc3S(=O)(=O)NC(C)(C)C)s2)CC1 (stereo partly drawn) [Ex. 36, isopropyl ((1R,4r)-4-(5-(2-(N-(tert-butyl)sulfamoyl)-4-(((((R)-pyrrolidin-2-yl)methoxy)carbonyl)amino)phenyl)thiazol-2-yl)cyclohexyl)carbamate]	0.1 to 1
					CC(C)OC(=O)NC1CCC(c2ncc(-c3ccc(NC(=O)OC[C@@H]4CCCN4)cc3S(=O)(=O)NC(C)(C)C)s2)CC1 (stereo partly drawn) [Ex. 37, isopropyl ((1S,4r)-4-(5-(2-(N-(tert-butyl)sulfamoyl)-4-(((((S)-pyrrolidin-2-yl)methoxy)carbonyl)amino)phenyl)thiazol-2-yl)cyclohexyl)carbamate]	0.1 to 1
					COc1cc(NC(=O)OC(C)C)cnc1-c1ncc(-c2ccc(NC(=O)OCC3CCNCC3)cc2S(=O)(=O)NC(C)(C)C)s1 [Ex. 56, 4-piperidylmethyl N-[3-(tert-butylsulfamoyl)-4-[2-[5-(isopropoxycarbonylamino)-3-methoxy-2-pyridyl]thiazol-5-yl]phenyl]carbamate]	0.1 to 1
					CC(C)OC(=O)N[C@H]1CC[C@@H](c2ncc(-c3ccc(NC(=O)NCc4ccccc4)cc3S(=O)(=O)NC(C)(C)C)s2)CC1 [Ex. 66B, cis-isopropyl N-[4-[5-[4-(benzylcarbamoylamino)-2-(tert-butylsulfamoyl)phenyl]thiazol-2-yl]cyclohexyl]carbamate]	0.1 to 1
					CC(C)OC(=O)Nc1ccc(-c2cnc([C@H]3CC[C@@H](NC(=O)OC(C)C)CC3)s2)c(S(=O)(=O)NC(C)(C)C)c1 [Ex. 67B, cis-isopropyl N-[3-(tert-butylsulfamoyl)-4-[2-[4-(isopropoxycarbonylamino)cyclohexyl]thiazol-5-yl]phenyl]carbamate]	> 1
					CC(C)OC(=O)NC1CCN(c2ncc(-c3ccc(NC(=O)NCc4ccccc4)cc3S(=O)(=O)NC(C)(C)C)s2)CC1 [Ex. 68, isopropyl N-[1-[5-[4-(benzylcarbamoylamino)-2-(tert-butylsulfamoyl)phenyl]thiazol-2-yl]-4-piperidyl]carbamate]	0.1 to 1
					CC(C)OC(=O)Nc1ccc(-c2cnc(N3CCC(NC(=O)OC(C)C)CC3)s2)c(S(=O)(=O)NC(C)(C)C)c1 [Ex. 69, isopropyl N-[1-[5-[2-(tert-butylsulfamoyl)-4-(isopropoxycarbonylamino)phenyl]thiazol-2-yl]-4-piperidyl]carbamate]	> 1

Compound	recovery at 90 min [1, 3] [%]	recovery at 90 min [1, 4] [%]	efflux ratio at 90 min [1]	Papp A→B at 90 min [1] [nm/s]	Papp B→A at 90 min [1] [nm/s]	EC50 [2] [µM]
CC(C)OC(=O)Nc1ccc(-c2cnc([C@H]3CC[C@H](NC(=O)OC4CCCC4)CC3)s2)c(S(=O)(=O)NC(C)(C)C)c1 [Ex. 7, trans-isopropyl N-[3-(tert-butylsulfamoyl)-4-[2-[4-(cyclopentoxycarbonylamino)cyclohexyl]thiazol-5-yl]phenyl]carbamate]	55.9	92	1.2	17	21	0.1 to 1
CC(C)OC(=O)Nc1ccc(-c2cnc([C@H]3CC[C@H](NC(=O)OC(C)(C)C)CC3)s2)c(S(=O)(=O)NC(C)(C)C)c1 [Ex. 44, trans-isopropyl N-[4-[2-[4-(tert-butoxycarbonylamino)cyclohexyl]thiazol-5-yl]-3-(tert-butylsulfamoyl)phenyl]carbamate]	36.2	69.4	1.3	32	42	> 1
